Source: PubChem BioAssay (NCI)
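Five compound concentrations were applied to cells in 96-well plates for 48 hours; endpoints were derived by simple linear interpolation of the resulting dose-response curve. The concentration for 50% growth inhibition is given as GI50. TGI is the concentration that stops growth completely.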

Tests used:
Test in all cases: NCI anticancer screen, dose series, 48 h
[1] = system: UACC-257 melanoma
[2] = system: LOX IMVI melanoma
[3] = system: SF-268 CNS
[4] = system: UACC-62 melanoma
[5] = system: MALME-3M melanoma
[6] = system: EKVX NSCLC
[7] = system: OVCAR-4 ovarian
[8] = system: U251 CNS

| Structure (SMILES) | GI50 [1] [µM] | TGI [1] [µM] | GI50 [2] [µM] | TGI [2] [µM] | GI50 [3] [µM] | TGI [3] [µM] | GI50 [4] [µM] | TGI [4] [µM] | GI50 [5] [µM] | TGI [5] [µM] | GI50 [6] [µM] | TGI [6] [µM] | GI50 [7] [µM] | TGI [7] [µM] | GI50 [8] [µM] | TGI [8] [µM] |
| --- | --- | --- | --- | --- | --- | --- | --- | --- | --- | --- | --- | --- | --- | --- | --- | --- |
| CCCCc1nc2cc(/C=C/C(=O)NO)ccc2n1CCN(CC)CC | 0.0759 | 0.58 | 0.291 | 1.28 | 0.552 | 7.55 | 0.188 | 0.743 | 0.153 | 22.2 | 0.387 | > 100 | 0.345 | > 54.2 | 0.28 | 1.43 |
| C=CCNc1cccc2c1C(=O)c1ccccc1C2(O)CC=C (centres undefined) | 15 | 39 | 18.6 | 35.9 | 62.7 | > 100 | 10.6 | 24.4 | – | – | 31.8 | > 100 | 26.2 | > 100 | 17.4 | 39.2 |
| COc1ccc2sc3c(NCCCNCCO)nc4ccccc4c3c(=O)c2c1 | 1.93 | 3.99 | 1.57 | 3 | 1.52 | 3.16 | 1.7 | 3.16 | 1.69 | 3.26 | 1.45 | 2.94 | 1.94 | 4.09 | 1.6 | 3.16 |
| CC(=O)OC1=C2C(CC3C4CC=C5CC(OC(C)=O)CCC5(C)C4CCC23C)C2C(=O)N(Cc3ccccc3)C(=O)C2C1 (centres undefined) | 10.9 | > 100 | – | – | 19.8 | > 100 | 4.42 | 34.3 | 10.5 | > 100 | – | – | 2.33 | 9.27 | – | – |
| COc1ccc(Nc2c[nH]c(=O)[nH]c2=O)cc1 | – | > 100 | – | > 100 | – | – | – | > 100 | – | > 100 | – | > 100 | – | > 100 | – | > 100 |
| COc1ccc(-c2[nH]ncc2-c2cc(OC)c(OC)c(OC)c2)cc1 | – | > 50.3 | < 0.01 | 44.4 | < 0.0127 | > 38.1 | < 0.01 | 22.5 | – | – | – | – | < 0.0397 | 29.6 | < 0.01 | 6.11 |
| CCCCC#Cc1cccc(=O)o1 | 30.9 | > 100 | – | – | > 100 | > 100 | 30 | > 100 | 57.4 | > 100 | 12.4 | > 100 | > 100 | > 100 | – | – |
| CN(C)CCCC(=O)Nc1ccc(Cn2nnc3c2C(=O)c2nnn(Cc4ccc(NC(=O)CCCN(C)C)cc4)c2C3=O)cc1 | 3.25 | 11.6 | 2.22 | 5.62 | 3.29 | 12.8 | – | – | 1.39 | 2.94 | – | – | 1.34 | 2.64 | 2.69 | 6.62 |
| CC12CCC(O)CC1CCC1C2CCC2(C)C(C3=CC(=O)OC3)CCC12 (centres undefined) | > 100 | > 100 | 0.3 | > 100 | 5.17 | > 41.8 | 0.522 | – | 26.3 | > 90.1 | – | – | – | > 73.2 | 2.62 | 10.1 |
| Nc1nc(Nc2ccc3c(c2)CCC(N2CCCC2)CC3)nn1-c1cc2c(nn1)-c1ccccc1CCC2 (centres undefined) | 1.7 | 3.36 | 1.34 | 2.69 | 1.25 | 3.07 | 1.5 | 3.07 | 1.42 | 3.09 | – | – | 1.15 | 2.56 | 1.09 | 2.39 |
| CN1c2ccccc2C(C)(C)C12CC(c1ccc(Cl)c(S(=O)(=O)N3CCCC3)c1)=NO2 (centres undefined) | > 100 | > 100 | – | – | > 100 | > 100 | – | – | > 100 | > 100 | > 100 | > 100 | > 100 | > 100 | 0.531 | > 100 |
| COc1cccc(C2C(C#N)=C(N)Oc3cc(OC)ccc32)c1 (centres undefined) | 1.1 | > 83.9 | 0.0835 | > 100 | 0.0762 | > 82.3 | 0.0682 | > 94.9 | – | – | – | – | 1.96 | > 96.8 | 0.0419 | > 100 |
| COc1ccc(-c2nn(-c3cccc(NC(=O)Nc4cccc(C(F)(F)F)c4)c3)cc2-c2ccncc2)cc1Cl | 2.28 | 10.8 | 3.02 | > 100 | 3.22 | > 100 | 2.02 | 5.59 | 2.07 | 8.72 | – | – | – | – | 1.06 | 3.98 |
| CCc1nc(N)nc(N)c1-c1ccc(Cl)c(N=NN(C)C)c1 | – | > 100 | – | > 100 | – | > 100 | – | 76.8 | – | – | – | > 95.2 | – | > 46.4 | – | > 100 |
| C=C(C(=O)OC)[C@@H]1C[C@@H](O)[C@]2(C)CC/C=C(\C)CCC[C@H](C)[C@H](O)C1O2 | > 100 | > 100 | 32.8 | > 100 | 65 | > 100 | 40.5 | > 100 | – | – | 55.9 | > 100 | 78.8 | > 100 | 51.4 | > 100 |
| c1ccc2c(c1)ccc1c3ccccc3ccc21 | > 50 | > 50 | > 50 | > 50 | > 50 | > 50 | > 50 | > 50 | > 50 | > 50 | – | – | > 50 | > 50 | > 50 | > 50 |
| N#Cc1ccc2oc3ccc(C#N)cc3c(=O)c2c1 | – | > 100 | – | – | – | 69.1 | – | 41.6 | – | 50.8 | – | – | – | 38.3 | – | 31.7 |
| O=C(Nc1ccccc1F)c1ccc(NC2=C(Cl)C(=O)N(Cc3ccccc3)C2=O)cc1 | 12.5 | 29.8 | 2.35 | 5.9 | 2 | 5.2 | 4.39 | 15.9 | – | – | 16.6 | 30.2 | 11.1 | 23.1 | 13.3 | 26 |
| C1C[OH+]CC[OH+]CC[OH+]CC[OH+]CC[OH+]CC[OH+]1.[Cl-].[Ta+5] | > 100 | > 100 | > 100 | > 100 | > 100 | > 100 | > 100 | > 100 | > 100 | > 100 | – | – | > 100 | > 100 | > 100 | > 100 |
